Values quoted from earlier work, collected in patent US9486545B2, “Method of screening for colon cancer using biomarkers” (H. Lee Moffitt Cancer Center and Research Institute, Inc., priority 2011, dated 2016).

Tested on: TLR4

- IC50: 3.2 nM
Structure (SMILES): CCOC(=O)C1=CCCC[C@H]1S(=O)(=O)Nc1ccc(F)cc1Cl [TAK 242, ethyl (6R)-6-[N-(2-Chloro-4-fluorophenyl)sulfamoyl]cyclohex-1-ene-1-carboxylate]
